Data taken from article PMC5516028, “Molecular tools for GABAA receptors: High affinity ligands for β1-containing subtypes” (Scientific Reports, 2017).
Read-outs that look alike come from different tables or passages of the source. Each block holds one compound with its values, some of them ahead of it.

Assays:
[1] = target: T1, α5β3 GABAA receptors (Rattus norvegicus, UniProt P19969+P63079); assay: Two electrode voltage clamp in Xenopus laevis oocytes, α5β3; format: cell-based; conditions: for activity at 0.1 µM: 100 nM
T1 construct: expressed in transfected cells; host or cells: Xenopus laevis oocytes, mRNA injected
T1 sequence (P19969 32-464 limits assumed): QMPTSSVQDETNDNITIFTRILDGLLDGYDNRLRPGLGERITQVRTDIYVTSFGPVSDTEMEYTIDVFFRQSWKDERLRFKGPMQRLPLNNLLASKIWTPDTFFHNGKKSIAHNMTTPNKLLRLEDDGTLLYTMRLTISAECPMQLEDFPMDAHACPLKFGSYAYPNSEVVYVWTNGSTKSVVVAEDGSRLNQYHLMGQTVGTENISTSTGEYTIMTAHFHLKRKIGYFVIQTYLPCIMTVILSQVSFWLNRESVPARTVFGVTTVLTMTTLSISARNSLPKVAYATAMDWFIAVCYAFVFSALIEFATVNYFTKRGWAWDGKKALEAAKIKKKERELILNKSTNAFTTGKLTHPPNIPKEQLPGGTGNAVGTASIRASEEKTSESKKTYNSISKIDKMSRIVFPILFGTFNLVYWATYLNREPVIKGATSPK
T1 sequence (P63079 26-473): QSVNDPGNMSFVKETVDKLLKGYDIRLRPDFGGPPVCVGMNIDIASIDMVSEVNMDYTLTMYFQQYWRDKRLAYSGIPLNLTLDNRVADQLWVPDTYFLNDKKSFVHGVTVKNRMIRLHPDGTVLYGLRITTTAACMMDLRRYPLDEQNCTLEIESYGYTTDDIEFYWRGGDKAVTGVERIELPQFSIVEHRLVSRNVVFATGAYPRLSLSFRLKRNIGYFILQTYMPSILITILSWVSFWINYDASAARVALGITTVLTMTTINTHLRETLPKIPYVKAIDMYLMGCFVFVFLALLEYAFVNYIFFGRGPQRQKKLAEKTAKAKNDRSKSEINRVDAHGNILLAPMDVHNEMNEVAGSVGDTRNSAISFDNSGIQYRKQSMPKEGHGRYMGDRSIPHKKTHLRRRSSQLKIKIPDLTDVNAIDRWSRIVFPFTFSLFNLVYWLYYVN
Description: (§1) cDNA’s of rat GABAA receptor subunits α1, α4, β1, β2, β3 and γ2S were cloned as described. cDNAs of the rat subunits α2, α3 and α5 were gifts from P. Malherbe, that of α6 and γ1 were gifts of P. Seeburg and that of δ was a gift of C. Czajkowski. The mutants were constructed using the Q5 Site-Directed Mutagenesis Kit (New England Biolabs) following manufacturer’s instruction. We used the wild-type rat β3-pCI vector as template and the primers […] and […] resulting in a substitution of amino acid N41 (AAC) to R (AGG). We used the wild-type rat β1-pCI vector as template and the primers […] and […] resulting in a substitution of amino acid R41 (CGG) to N (AAC). The mutated subunits were confirmed by sequencing.
(§2) In vitro transcription of mRNA was based on the cDNA expression vectors encoding for rat GABAA receptor subunits α1–6, β1-3, γ1,2, δ and the two β mutants (β1R41N and β3N41R)[40]. After linearizing the cDNA vectors with appropriate restriction endonucleases, the cDNA was purified and concentrated with the DNA Clean and Contentrator ^TM Kit (Zymoresearch, Catalog No. D4005). Capped transcripts of the purified cDNA were produced using the mMESSAGE mMACHINE® T7 transcription kit (Ambion, TX, USA) and polyadenylated using the Ambion PolyA tailing kit (Ambion). After transcription and polyadenylation the RNA was purified with the MEGAclear ^TM Kit (Ambion, Catalog No. AM1908). The final RNA concentration was measured on NanoDrop® ND-1000 and finally diluted and stored in diethylpyrocarbonate-treated water at −80 °C. For the microinjection, the RNA of αβ receptor combinations was mixed at 1:1 ratio (which leads to αβ receptors that consist of predominantly 3 beta and 2 alpha subunits[27]), for αkβlγm (k = 1–3, l = 1, 3, m = 1, 2) receptors at 1:1:5 ratio, for αkβ3γ2 (k = 4–6) and αkβlδ (k = 1, 4 and 6, l = 1, 3) receptor combinations at 3:1:5 ratio.
(§3) Mature female Xenopus laevis (Nasco, WI) were anesthetized in a bath of ice-cold 0.17% Tricain (Ethyl-m-aminobenzoate, Sigma, MO) before decapitation in full accordance with all rules of the Austrian animal protection law (see http://www.ris.bka.gv.at/Dokumente/BgblAuth/BGBLA_2012_I_114/BGBLA_2012_I_114.pdf) and the Austrian animal experiment by-laws (see https://www.ris.bka.gv.at/Dokumente/BgblAuth/BGBLA_2012_II_522/BGBLA_2012_II_522.pdf) which implement the European Directive 2010/63/EU (see http://eur-lex.europa.eu/LexUriServ/LexUriServ.do?uri=OJ:L:2010:276:0033:0079:en:PDF) into the Austrian law (all information accessed on July 27, 2016). The frog’s ovaries were transferred to ND96 medium (96 mM NaCl, 2 mM KCl, 1 mM MgCl2, 5 mM HEPES; pH 7.5). Stage 5–6 oocytes with the follicle cell layer around them were roughly dissected with forceps into packages of 10–15 cells and washed in Ca^2+-free ND96 medium. Cells were then digested with collagenase (type IA, Sigma, NO, 1 mg/mL ND96) at 18 °C shaking at 30 rpm for 30–60 minutes and gently defolliculated with the aid of a glass pipette with appropriate tip diameter and a platinum loop. Defolliculated cells were stored at 18 °C for at least 6 hours in ND96 solution containing penicillin G (10000 IU/100 mL) and streptomycin (10 mg/100 mL) in order to preselect and exclude damaged cells from further treatment. Healthy defolliculated oocytes were injected with an aqueous solution of mRNA. A total of 4.5 ng of mRNA per oocyte was injected with a Nanoject II (Drummond). After injection of mRNA, oocytes were incubated at 18 °C (ND96 + antibiotic) for 2–3 days for αβ receptors and for 3–4 days for αβγ or αβδ receptors before recording. When cells were measured at later time points, oocytes were stored at +4 °C instead of 18 °C.
(§4) For electrophysiological recordings, oocytes were placed on a nylon-grid in a bath of Ca^2+-containing NDE solution medium [96 mM NaCl, 5 mM HEPES-NaOH (pH 7.5), 2 mM KCl, 1 mM MgCl2, 1.8 mM CaCl2].

[2] = target: α2β1γ2 GABAA receptors; set-up: method as in earlier work; conditions: published data, ref 1 (Supplementary References), read-out: Approximate EC50; cited from earlier work
[3] = target: α5β1γ2 GABAA receptors; set-up: method as in earlier work; conditions: published data, ref 1 (Supplementary References), read-out: Approximate EC50; cited from earlier work
[4] = target: T2, α5β3γ2 GABAA receptors (Rattus norvegicus, UniProt P19969+P63079); set-up: method as in earlier work; conditions: published data, ref 1 (Supplementary References), read-out: Approximate EC50; cited from earlier work
T2 construct: expressed in transfected cells; host or cells: Xenopus laevis oocytes, mRNA injected
T2 sequence (P19969 32-464 limits assumed): as the sequence (P19969 32-464 limits assumed) above
T2 sequence (P63079 26-473): as the sequence (P63079 26-473) above
T2 sequence (P18508 39-466 partner): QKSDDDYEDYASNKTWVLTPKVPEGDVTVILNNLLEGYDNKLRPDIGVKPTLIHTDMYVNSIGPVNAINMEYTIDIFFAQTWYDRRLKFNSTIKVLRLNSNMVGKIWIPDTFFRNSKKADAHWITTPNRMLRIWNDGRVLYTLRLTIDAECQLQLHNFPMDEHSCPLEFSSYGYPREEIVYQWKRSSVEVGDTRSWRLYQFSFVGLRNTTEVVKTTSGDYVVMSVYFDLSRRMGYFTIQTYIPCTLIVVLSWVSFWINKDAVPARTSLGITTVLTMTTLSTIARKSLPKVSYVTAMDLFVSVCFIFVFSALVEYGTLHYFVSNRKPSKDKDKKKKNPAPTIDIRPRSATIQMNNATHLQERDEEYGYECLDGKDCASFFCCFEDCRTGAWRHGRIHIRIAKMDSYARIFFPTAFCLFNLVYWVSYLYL

[5] = target: T3, α3β3γ2 GABAA receptors (Rattus norvegicus, UniProt P20236+P63079); set-up: method as in earlier work; conditions: published data, ref 1 (Supplementary References), read-out: Approximate EC50; cited from earlier work
T3 construct: expressed in transfected cells; host or cells: Xenopus laevis oocytes, mRNA injected
T3 sequence (P20236 29-493): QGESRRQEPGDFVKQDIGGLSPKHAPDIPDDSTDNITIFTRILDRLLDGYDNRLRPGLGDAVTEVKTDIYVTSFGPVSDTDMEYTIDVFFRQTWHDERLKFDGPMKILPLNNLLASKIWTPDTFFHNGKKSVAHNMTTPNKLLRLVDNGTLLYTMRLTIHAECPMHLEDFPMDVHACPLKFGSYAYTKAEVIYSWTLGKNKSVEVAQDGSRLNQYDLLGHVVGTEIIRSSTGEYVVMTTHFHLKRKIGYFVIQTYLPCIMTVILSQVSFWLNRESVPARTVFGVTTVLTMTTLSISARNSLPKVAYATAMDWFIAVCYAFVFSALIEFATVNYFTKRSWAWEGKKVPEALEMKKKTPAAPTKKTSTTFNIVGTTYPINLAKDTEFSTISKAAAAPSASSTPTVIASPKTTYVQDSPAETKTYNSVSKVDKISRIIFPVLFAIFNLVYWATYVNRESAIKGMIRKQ
T3 sequence (P63079 26-473): as the sequence (P63079 26-473) above
T3 sequence (P18508 39-466 partner): as the sequence (P18508 39-466 partner) above

[6] = target: T1, α5β3 GABAA receptors; set-up: method as in earlier work; conditions: published data, ref 1 (Supplementary References), read-out: Approximate EC50; cited from earlier work
[7] = target: T4, α3β3 GABAA receptors (Rattus norvegicus, UniProt P20236+P63079); set-up: method as in earlier work; conditions: published data, ref 1 (Supplementary References), read-out: Approximate EC50; cited from earlier work
T4 construct: expressed in transfected cells; host or cells: Xenopus laevis oocytes, mRNA injected
T4 sequence (P20236 29-493): as the sequence (P20236 29-493) above
T4 sequence (P63079 26-473): as the sequence (P63079 26-473) above

[8] = target: T5, α2β3 GABAA receptors (Rattus norvegicus, UniProt P23576+P63079); set-up: method as in earlier work; conditions: published data, ref 1 (Supplementary References), read-out: Approximate EC50; cited from earlier work
T5 construct: expressed in transfected cells; host or cells: Xenopus laevis oocytes, mRNA injected
T5 sequence (P23576 29-451): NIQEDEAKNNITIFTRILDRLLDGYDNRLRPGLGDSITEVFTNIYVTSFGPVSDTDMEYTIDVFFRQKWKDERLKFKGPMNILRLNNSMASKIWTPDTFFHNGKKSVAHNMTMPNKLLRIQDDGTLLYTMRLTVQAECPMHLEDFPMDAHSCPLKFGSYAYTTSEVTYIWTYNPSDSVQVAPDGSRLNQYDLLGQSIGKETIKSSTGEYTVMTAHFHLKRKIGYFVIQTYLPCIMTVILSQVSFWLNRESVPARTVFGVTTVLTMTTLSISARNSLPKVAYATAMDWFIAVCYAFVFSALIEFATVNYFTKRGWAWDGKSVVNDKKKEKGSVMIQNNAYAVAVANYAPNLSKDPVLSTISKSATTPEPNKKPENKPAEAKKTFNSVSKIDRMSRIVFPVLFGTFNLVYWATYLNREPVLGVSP
T5 sequence (P63079 26-473): as the sequence (P63079 26-473) above

[9] = target: T6, α1β1δ GABAA receptors (Rattus norvegicus, UniProt P15431+P62813); assay: Two electrode voltage clamp in Xenopus laevis oocytes, α1β1δ; format: cell-based; conditions: α1β1δ
T6 construct: expressed in transfected cells; host or cells: Xenopus laevis oocytes, mRNA injected
T6 sequence (P62813 28-455): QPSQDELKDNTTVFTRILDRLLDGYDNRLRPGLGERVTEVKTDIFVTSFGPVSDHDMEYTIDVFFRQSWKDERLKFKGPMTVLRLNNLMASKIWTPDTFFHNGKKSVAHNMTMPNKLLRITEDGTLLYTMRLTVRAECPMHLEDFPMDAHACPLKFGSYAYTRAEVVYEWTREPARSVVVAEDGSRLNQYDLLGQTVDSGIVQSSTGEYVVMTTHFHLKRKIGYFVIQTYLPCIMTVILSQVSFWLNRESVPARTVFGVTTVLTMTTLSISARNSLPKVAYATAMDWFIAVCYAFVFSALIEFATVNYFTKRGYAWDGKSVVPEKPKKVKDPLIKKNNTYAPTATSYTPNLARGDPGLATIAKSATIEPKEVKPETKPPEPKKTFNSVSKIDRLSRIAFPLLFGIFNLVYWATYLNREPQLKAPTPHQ
T6 sequence (P15431 26-474): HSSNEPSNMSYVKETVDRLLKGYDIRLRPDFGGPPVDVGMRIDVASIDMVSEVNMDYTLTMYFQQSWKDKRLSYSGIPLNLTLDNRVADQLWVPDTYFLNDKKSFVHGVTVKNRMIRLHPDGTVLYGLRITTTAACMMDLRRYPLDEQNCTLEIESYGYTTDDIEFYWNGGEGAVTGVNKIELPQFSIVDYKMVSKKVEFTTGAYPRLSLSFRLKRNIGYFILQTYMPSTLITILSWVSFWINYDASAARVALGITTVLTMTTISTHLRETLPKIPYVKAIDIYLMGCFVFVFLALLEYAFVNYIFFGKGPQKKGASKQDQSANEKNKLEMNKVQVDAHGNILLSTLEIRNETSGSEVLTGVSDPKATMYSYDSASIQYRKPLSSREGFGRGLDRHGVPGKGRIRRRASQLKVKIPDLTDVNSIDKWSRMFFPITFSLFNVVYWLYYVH
T6 sequence (P18506 17-449 partner limits assumed): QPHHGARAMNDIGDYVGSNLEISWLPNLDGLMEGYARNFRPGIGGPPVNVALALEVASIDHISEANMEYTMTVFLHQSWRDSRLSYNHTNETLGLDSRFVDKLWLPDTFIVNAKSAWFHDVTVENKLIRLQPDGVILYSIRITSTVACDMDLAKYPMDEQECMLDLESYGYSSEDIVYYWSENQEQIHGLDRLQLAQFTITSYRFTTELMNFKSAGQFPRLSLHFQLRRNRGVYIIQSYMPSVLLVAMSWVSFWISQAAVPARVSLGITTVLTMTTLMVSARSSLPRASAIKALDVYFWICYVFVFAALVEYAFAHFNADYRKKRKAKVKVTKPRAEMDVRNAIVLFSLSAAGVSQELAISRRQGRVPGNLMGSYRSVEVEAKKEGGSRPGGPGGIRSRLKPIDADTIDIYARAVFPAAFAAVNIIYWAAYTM
Description: as §1, §2, §3, §4

[10] = target: T7, α1β3γ2 GABAA receptors (Rattus norvegicus, UniProt P62813+P63079); set-up: method as in earlier work; conditions: published data, ref 1 (Supplementary References), read-out: Approximate EC50; cited from earlier work
T7 construct: expressed in transfected cells; host or cells: Xenopus laevis oocytes, mRNA injected
T7 sequence (P62813 28-455): as the sequence (P62813 28-455) above
T7 sequence (P63079 26-473): as the sequence (P63079 26-473) above
T7 sequence (P18508 39-466 partner): as the sequence (P18508 39-466 partner) above

[11] = target: α3β2γ2 GABAA receptors; set-up: method as in earlier work; conditions: published data, ref 1 (Supplementary References), read-out: Approximate EC50; cited from earlier work
[12] = target: α2β2γ2 GABAA receptors; set-up: method as in earlier work; conditions: published data, ref 1 (Supplementary References), read-out: Approximate EC50; cited from earlier work
[13] = read-out: efficacy, % of control current (GABA EC3-5 = 100%), α5β3

EC50 [1]: 6100 nM
activity at 0.001 µM ([1]; read-out: efficacy, % of control current (GABA EC3-5 = 100%), α5β3, 1 nM): 97.3 ± 1.2%
activity at 0.1 µM [1, 13]: 110 ± 3.6%
activity at 0.3 µM ([1]; read-out: efficacy, % of control current (GABA EC3-5 = 100%), α5β3, 300 nM): 108 ± 6.3%
activity at 1 µM [1, 13]: 132 ± 3.8%
activity at 3 µM ([1]; read-out: efficacy, % of control current (GABA EC3-5 = 100%), α5β3, 3 µM): 190 ± 22.9%
activity at 30 µM ([1]; read-out: efficacy, % of control current (GABA EC3-5 = 100%), α5β3, 30 µM): 232 ± 21.5%
Structure (SMILES): Cc1ccc(-n2nc3c4cc(Cl)ccc4[nH]cc-3c2=O)cc1 [Compound 2, 8-Chloro-2-(4-methylphenyl)-2H-pyrazolo[4,3-c]quinolin-3(5H)-one]

activity at 0.01 µM ([9]; read-out: efficacy, % of control current (GABA EC3-5 = 100%), 10 nM): 126 ± 5.6%
activity at 0.03 µM ([9]; read-out: efficacy, % of control current (GABA EC3-5 = 100%), 30 nM): 192 ± 21.1%
activity at 10 µM ([9]; read-out: efficacy, % of control current (GABA EC3-5 = 100%), 10 µM): 294 ± 11.1%
Hill slope (nH) [9]: 0.8±0.2
EC50 ([9]; co-applied with GABA EC3-5, read-out: EC50): 70 nM
EC50 ([9]; log of EC50, sign as printed, read-out: LogEC50 (converted)): 100 nM
Structure (SMILES): COc1ccc(-n2nc3c4cc(Cl)ccc4[nH]cc-3c2=O)cc1 [Compound 1, 8-Chloro-2-(4-methoxyphenyl)-2H-pyrazolo[4,3-c]quinolin-3(5H)-one]
EC50 [2]: ~50 nM
EC50 [3]: ~50 nM
EC50 [4]: ~600 nM
EC50 [5]: ~1500 nM
EC50 [6]: ~600 nM
EC50 [7]: ~1800 nM
EC50 [8]: ~3000 nM
EC50 [10]: ~1800 nM
EC50 [11]: ~2100 nM
EC50 [12]: ~3500 nM

activity at 0.1 µM [1, 13]: 115 ± 8%
activity at 1 µM [1, 13]: 108 ± 4.7%
activity at 10 µM ([1]; read-out: efficacy, % of control current (GABA EC3-5 = 100%), α5β3, 10 µM): 75.4 ± 6.4%
Structure (SMILES): Nc1ccc(-n2nc3c4cc(Cl)ccc4[nH]cc-3c2=O)cc1 [Compound 3, 8-Chloro-2-(4-aminophenyl)-2H-pyrazolo[4,3-c]quinolin-3(5H)-one]
